Laboratory results published in the supplement of paper PMC10307832.

Experiments:
Assay in all cases: relative viability (nuclei count vs DMSO), 5 days (fraction); higher = more cells survive
TGX 221 + Navitoclax = compound: CC1=CN2C(=O)C=C(N=C2C(=C1)C(C)NC3=CC=CC=C3)N4CCOCC4 [TGX 221] + CC1(C)CCC(c2ccc(Cl)cc2)=C(CN2CCN(c3ccc(C(=O)NS(=O)(=O)c4ccc(N[C@H](CCN5CCOCC5)CSc5ccccc5)c(S(=O)(=O)C(F)(F)F)c4)cc3)CC2)C1 [Navitoclax] (partner 0.5 µM)
In short: (§1)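 Cells from lung cancer lines were seeded into 1536-well plates and, one day later, dosed by pin tool. Treatments were either a single drug or a fixed dose of an anchor drug with five library-drug doses (not always all listed) in √10 steps. After 5 days, nuclei were stained in a one-step fixation (final 0.05% Triton X-100, 1% formaldehyde, 1 ug/ml Hoechst) and counted on 4× images, and relative viability is the treated-to-vehicle nuclei ratio, as the median of duplicate plates.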

[1] = compound: O=C(CCCCCCNC(=O)c1cnc(N(c2ccccc2)c2ccccc2)nc1)NO [Ricolinostat] + CC(=O)c1c(C)c2cnc(Nc3ccc(N4CCNCC4)cn3)nc2n(C2CCCC2)c1=O [Palbociclib] (partner 0.5 µM)
In short: as §1

[2] = compound: O=C(CCCCCCNC(=O)c1cnc(N(c2ccccc2)c2ccccc2)nc1)NO [Ricolinostat] + CCNC(=O)c1noc(-c2cc(C(C)C)c(O)cc2O)c1-c1ccc(CN2CCOCC2)cc1 [Luminespib] (partner 0.01 µM)
In short: as §1

Ricolinostat + Lapatinib = compound: O=C(CCCCCCNC(=O)c1cnc(N(c2ccccc2)c2ccccc2)nc1)NO [Ricolinostat] + CS(=O)(=O)CCNCc1ccc(-c2ccc3ncnc(Nc4ccc(OCc5cccc(F)c5)c(Cl)c4)c3c2)o1 [Lapatinib] (partner 2 µM)
In short: as §1

Row | Cell Line | relative viability (TGX 221 + Navitoclax; first compound 0.08 µM) | relative viability (TGX 221 + Navitoclax; first compound 0.253 µM) | relative viability (TGX 221 + Navitoclax; first compound 0.8 µM) | relative viability (TGX 221 + Navitoclax; first compound 2.53 µM) | relative viability (TGX 221 + Navitoclax; first compound 8 µM) | relative viability ([1]; first compound 0.08 µM) | relative viability ([1]; first compound 0.253 µM) | relative viability ([1]; first compound 0.8 µM) | relative viability ([1]; first compound 2.53 µM) | relative viability ([2]; first compound 0.08 µM) | relative viability ([2]; first compound 0.253 µM) | relative viability ([2]; first compound 0.8 µM) | relative viability ([2]; first compound 2.53 µM) | relative viability (Ricolinostat + Lapatinib; first compound 0.08 µM) | relative viability (Ricolinostat + Lapatinib; first compound 0.253 µM) | relative viability (Ricolinostat + Lapatinib; first compound 0.8 µM) | relative viability (Ricolinostat + Lapatinib; first compound 2.53 µM)
1 | SK-MES-1 | 1.17 | 1.05 | 1.13 | 1.05 | 0.996 | 0.369 | 0.308 | 0.339 | 0.397 | 0.84 | 0.865 | 0.609 | 0.757 | 0.403 | 0.466 | 0.439 | 0.456
2 | HCC-827 | 0.951 | 1.02 | 1.02 | 1.05 | 0.982 | 0.335 | 0.548 | 0.487 | 0.573 | 0.581 | 0.76 | 0.487 | 0.552 | 0.173 | 0.184 | 0.173 | 0.155
3 | EMC-BAC-2 | 1.16 | 1.1 | 1.13 | 1.11 | 1.05 | 0.525 | 0.496 | 0.47 | 0.405 | 1.05 | 1.14 | 1.12 | 1.11 | 0.784 | 0.895 | 0.894 | 0.676
4 | NCI-H2023 | 0.987 | 0.965 | 0.988 | 0.925 | 0.758 | 0.415 | 0.328 | 0.42 | 0.397 | 0.761 | 0.434 | 0.752 | 0.665 | 0.552 | 0.91 | 0.792 | 0.487
5 | NCI-H1993 | 0.761 | 0.848 | 0.884 | 0.831 | 0.82 | 0.614 | 0.67 | 0.664 | 0.514 |  | 0.941 | 0.87 | 0.724 | 0.714 | 0.867 | 0.796 | 0.91
6 | COR-L 105 | 0.97 | 0.613 | 0.842 | 0.799 | 0.558 | 0.401 | 0.396 | 0.387 | 0.476 |  | 0.746 | 0.765 | 0.749 | 0.342 | 0.396 | 0.399 | 0.384
7 | LK-2 | 0.98 | 0.84 | 0.81 | 0.996 | 0.948 | 0.774 | 0.548 | 0.599 | 0.605 | 0.18 | 0.191 | 0.168 | 0.177 | 0.908 | 1.2 | 0.941 | 0.913
8 | NCI-H520 | 1.24 | 0.944 | 1.03 | 0.756 | 0.648 |  | 0.256 | 0.262 | 0.27 |  | 0.208 | 0.295 | 0.233 |  | 0.745 | 0.851 | 0.786
9 | NCI-H322M | 1.13 | 1.19 | 1.14 | 0.911 | 1.33 | 0.495 | 0.493 | 0.478 | 0.52 |  | 0.974 | 0.988 | 1.09 |  | 0.494 | 0.624 | 0.66
10 | NCI-H1395 | 1.02 | 0.907 | 0.986 | 0.957 | 0.763 |  | 0.603 | 0.662 | 0.702 |  | 0.792 | 0.859 | 0.528 |  | 1.11 | 0.881 | 0.833
11 | NCI-H2228 | 0.856 | 0.949 | 0.609 | 0.931 | 0.644 | 0.874 | 0.895 | 0.9 | 0.504 | 0.157 | 0.115 | 0.167 | 0.15 | 0.876 | 0.88 | 1.11 | 0.574
12 | NCI-H2009 | 1.13 | 1.16 | 1.17 | 1.02 | 0.927 | 0.164 | 0.202 | 0.222 | 0.296 | 0.99 | 0.927 | 0.91 | 0.84 | 0.812 | 0.887 | 0.832 | 0.74
13 | LXF-289 | 0.966 | 0.967 | 0.929 | 0.882 | 0.945 | 0.618 | 0.552 | 0.599 | 0.609 | 0.579 | 0.655 | 0.692 | 0.672 | 0.847 | 0.907 | 0.897 | 0.731
14 | NCI-H1975 | 1.03 | 1.13 | 0.989 | 0.903 | 0.805 | 0.709 | 0.607 | 0.607 | 0.471 | 0.243 | 0.227 | 0.186 | 0.179 | 0.878 | 0.914 |  | 0.664
15 | NCI-H2347 | 0.796 | 0.681 | 0.598 | 0.432 | 0.49 | 0.487 | 0.371 | 0.294 | 0.408 | 0.424 | 0.487 | 0.573 | 0.364 | 0.849 | 0.908 | 0.874 | 0.82
16 | RERF-LC-KJ |  | 0.78 | 0.913 | 0.8 | 1.14 | 1.02 | 1.21 | 1.25 | 0.902 | 1.31 | 1.07 | 1.16 | 0.809 | 0.828 | 0.864 | 0.858 | 0.808
17 | BEN | 0.0671 | 0.0617 | 0.0682 | 0.0659 | 0.0557 | 0.461 | 0.474 | 0.499 | 0.451 | 0.228 | 0.371 | 0.402 | 0.326 | 0.613 | 0.643 | 0.588 | 0.423
